# Assay results published in PubChem BioAssay (NCI).
#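 Compound exposure: 48 hours, 5 concentrations, 96-well plates. GI50 marks 50% less growth. The concentration for full growth arrest is given as TGI.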
# What was measured:
# Experiment in all cases: NCI anticancer screen, dose series, 48 h
# [1] = tested on: NCI-H226 lung
# [2] = tested on: NCI-H460 lung
# [3] = tested on: UACC-257 melanoma
# [4] = tested on: SK-MEL-28 melanoma
# [5] = tested on: RXF 393 renal
# [6] = tested on: MALME-3M melanoma
# [7] = tested on: HS 578T breast
# [8] = tested on: MDA-MB-435
# [9] = tested on: SF-539 CNS
# [10] = tested on: COLO 205 colon
# [11] = tested on: HOP-62 NSCLC
# [12] = tested on: RPMI-8226 leukemia
# [13] = tested on: NCI/ADR-RES ovarian
# [14] = tested on: HOP-92 NSCLC
# [15] = tested on: A498 renal
# [16] = tested on: HT29 colon
# [17] = tested on: HCT-116 colon
# [18] = tested on: SW-620 colon
# [19] = tested on: KM12 colon
# [20] = tested on: SN12C renal
# [21] = tested on: OVCAR-3 ovarian
# [22] = tested on: M14 melanoma
# [23] = tested on: IGROV1 ovarian
# [24] = tested on: CAKI-1 renal
# [25] = tested on: A549 NSCLC
# [26] = tested on: U251 CNS
# [27] = tested on: DU-145 prostate
# [28] = tested on: SF-295 CNS
# [29] = tested on: NCI-H522 lung
# [30] = tested on: K-562 leukemia
# [31] = tested on: SNB-19 CNS
# [32] = tested on: OVCAR-5 ovarian
# [33] = tested on: SK-MEL-2 melanoma
# [34] = tested on: SR leukemia
# [35] = tested on: MOLT-4 leukemia
# [36] = tested on: HCC-2998 colon
# [37] = tested on: UACC-62 melanoma
# [38] = tested on: SK-MEL-5 melanoma
# [39] = tested on: OVCAR-4 ovarian
# [40] = tested on: 786-0 renal
# [41] = tested on: ACHN renal
# [42] = tested on: HCT-15 colon
# [43] = tested on: SF-268 CNS
# [44] = tested on: CCRF-CEM leukemia
# [45] = tested on: PC-3 prostate
# [46] = tested on: TK-10 renal
# [47] = tested on: MCF7 breast
# [48] = tested on: HL-60(TB) leukemia
# [49] = tested on: SNB-75 CNS
# [50] = tested on: MDA-MB-231 breast
# [51] = tested on: LOX IMVI melanoma
# [52] = tested on: BT-549 breast
# [53] = tested on: EKVX NSCLC
# [54] = tested on: OVCAR-8 ovarian
# [55] = tested on: UO-31 renal
# [56] = tested on: NCI-H23 lung
# [57] = tested on: SK-OV-3 ovarian
# [58] = tested on: T-47D breast
compound,measurement,setting,value
Nc1ncc(-c2ccc3ncnc(N4CCc5cc(F)c(Cl)cc54)c3c2)cn1,GI50,[1],1.34 µM
same,TGI,[1],> 100 µM
same,GI50,[2],1.04 µM
same,TGI,[2],> 100 µM
same,GI50,[3],3.73 µM
same,TGI,[3],> 100 µM
same,GI50,[4],2.64 µM
same,TGI,[4],> 100 µM
same,GI50,[5],0.35 µM
same,TGI,[5],2.26 µM
same,GI50,[6],1.73 µM
same,TGI,[6],> 100 µM
same,GI50,[7],0.406 µM
same,TGI,[7],3.06 µM
same,GI50,[8],2.61 µM
same,TGI,[8],> 100 µM
same,GI50,[9],1.91 µM
same,TGI,[9],> 100 µM
same,GI50,[10],1.91 µM
same,TGI,[10],16 µM
same,GI50,[11],1.45 µM
same,TGI,[11],> 100 µM
same,GI50,[12],0.866 µM
same,TGI,[12],5.44 µM
same,GI50,[13],2.7 µM
same,TGI,[13],> 100 µM
same,GI50,[14],0.323 µM
same,TGI,[14],3.71 µM
same,GI50,[15],0.256 µM
same,TGI,[15],1.46 µM
same,GI50,[16],1.77 µM
same,TGI,[16],> 100 µM
same,GI50,[17],1.99 µM
same,TGI,[17],> 100 µM
same,GI50,[18],2.51 µM
same,TGI,[18],> 100 µM
same,GI50,[19],3.36 µM
same,TGI,[19],> 100 µM
same,GI50,[20],1.06 µM
same,TGI,[20],> 100 µM
same,GI50,[21],1.35 µM
same,TGI,[21],> 100 µM
same,GI50,[22],2.86 µM
same,TGI,[22],> 100 µM
same,GI50,[23],0.244 µM
same,TGI,[23],1.27 µM
same,GI50,[24],0.418 µM
same,TGI,[24],6.76 µM
same,GI50,[25],1.32 µM
same,TGI,[25],> 100 µM
same,GI50,[26],3.26 µM
same,TGI,[26],> 100 µM
same,GI50,[27],0.722 µM
same,TGI,[27],> 100 µM
same,GI50,[28],1.82 µM
same,TGI,[28],> 100 µM
same,GI50,[29],2.8 µM
same,TGI,[29],> 100 µM
same,GI50,[30],3.16 µM
same,TGI,[30],> 100 µM
same,GI50,[31],2.42 µM
same,TGI,[31],> 100 µM
same,GI50,[32],1.16 µM
same,TGI,[32],> 100 µM
same,GI50,[33],2.43 µM
same,TGI,[33],8.53 µM
same,GI50,[34],2.25 µM
same,TGI,[34],> 100 µM
same,GI50,[35],1.83 µM
same,TGI,[35],36.6 µM
same,GI50,[36],3.12 µM
same,TGI,[36],> 100 µM
same,GI50,[37],0.731 µM
same,TGI,[37],6.87 µM
same,GI50,[38],2.29 µM
same,TGI,[38],11 µM
same,GI50,[39],2.86 µM
same,TGI,[39],> 100 µM
same,GI50,[40],0.741 µM
same,TGI,[40],> 100 µM
same,GI50,[41],0.557 µM
same,TGI,[41],> 100 µM
same,GI50,[42],1.94 µM
same,TGI,[42],> 100 µM
same,GI50,[43],1.02 µM
same,TGI,[43],> 100 µM
same,GI50,[44],1.6 µM
same,TGI,[44],> 100 µM
same,GI50,[45],1.03 µM
same,TGI,[45],> 100 µM
same,GI50,[46],0.696 µM
same,TGI,[46],7.41 µM
same,GI50,[47],0.278 µM
same,TGI,[47],> 100 µM
same,GI50,[48],1.13 µM
same,TGI,[48],> 100 µM
same,GI50,[49],0.162 µM
same,TGI,[49],1.85 µM
same,GI50,[50],1.02 µM
same,TGI,[50],14.3 µM
same,GI50,[51],1.94 µM
same,TGI,[51],> 100 µM
same,GI50,[52],1.06 µM
same,TGI,[52],7.34 µM
same,GI50,[53],0.499 µM
same,TGI,[53],10.1 µM
same,GI50,[54],2.3 µM
same,TGI,[54],> 100 µM
CCCNNC(=O)c1ccc(-c2ccc(NC(=O)CCCCCCC(=O)N[C@H](C(=O)N3C[C@H](O)C[C@H]3C(=O)N[C@@H](C)c3ccc(-c4scnc4C)cc3)C(C)(C)C)cc2)cc1,GI50,[55],> 100 µM
same,TGI,[55],> 100 µM
same,GI50,[1],9.28 µM
same,TGI,[1],> 100 µM
same,GI50,[2],2.63 µM
same,TGI,[2],> 100 µM
same,GI50,[3],0.845 µM
same,TGI,[3],> 100 µM
same,GI50,[4],0.599 µM
same,TGI,[4],> 100 µM
same,GI50,[5],0.465 µM
same,TGI,[5],2.37 µM
same,GI50,[6],0.457 µM
same,TGI,[6],> 20.3 µM
same,GI50,[7],1.91 µM
same,TGI,[7],> 100 µM
same,GI50,[8],0.848 µM
same,TGI,[8],> 39.3 µM
same,GI50,[9],2.05 µM
same,TGI,[9],> 100 µM
same,GI50,[10],0.785 µM
same,TGI,[10],3.25 µM
same,GI50,[11],2.46 µM
same,TGI,[11],> 100 µM
same,GI50,[13],> 100 µM
same,TGI,[13],> 100 µM
same,GI50,[56],2.22 µM
same,TGI,[56],> 100 µM
same,GI50,[14],0.258 µM
same,TGI,[14],2.14 µM
same,GI50,[15],1.41 µM
same,TGI,[15],4.36 µM
same,GI50,[16],0.893 µM
same,TGI,[16],> 100 µM
same,GI50,[17],0.41 µM
same,TGI,[17],5.28 µM
same,GI50,[18],1.28 µM
same,TGI,[18],9.26 µM
same,GI50,[19],3.34 µM
same,TGI,[19],> 100 µM
same,GI50,[20],4.21 µM
same,TGI,[20],> 100 µM
same,GI50,[21],0.917 µM
same,TGI,[21],12.7 µM
same,GI50,[22],2.86 µM
same,TGI,[22],> 100 µM
same,GI50,[23],0.442 µM
same,TGI,[23],> 100 µM
same,GI50,[24],7.41 µM
same,TGI,[24],> 100 µM
same,GI50,[25],> 95.1 µM
same,TGI,[25],> 100 µM
same,GI50,[26],1.03 µM
same,TGI,[26],8.46 µM
same,GI50,[27],2.01 µM
same,TGI,[27],> 100 µM
same,GI50,[28],5.97 µM
same,TGI,[28],> 100 µM
same,GI50,[29],1.12 µM
same,TGI,[29],> 100 µM
same,GI50,[30],0.524 µM
same,TGI,[30],> 100 µM
same,GI50,[31],2.62 µM
same,TGI,[31],> 47.6 µM
same,GI50,[32],1.88 µM
same,TGI,[32],> 100 µM
same,GI50,[33],2.7 µM
same,TGI,[33],> 100 µM
same,GI50,[34],0.386 µM
same,TGI,[34],> 100 µM
same,GI50,[35],0.41 µM
same,TGI,[35],> 100 µM
same,GI50,[36],2.05 µM
same,TGI,[36],11.1 µM
same,GI50,[37],1.44 µM
same,TGI,[37],6.94 µM
same,GI50,[38],2.08 µM
same,TGI,[38],8.47 µM
same,GI50,[39],> 100 µM
same,TGI,[39],> 100 µM
same,GI50,[40],5.02 µM
same,TGI,[40],> 100 µM
same,GI50,[41],> 100 µM
same,TGI,[41],> 100 µM
same,GI50,[42],> 100 µM
same,TGI,[42],> 100 µM
same,GI50,[43],3.63 µM
same,TGI,[43],> 100 µM
same,GI50,[44],0.357 µM
same,TGI,[44],> 100 µM
same,GI50,[45],1.25 µM
same,TGI,[45],> 100 µM
same,GI50,[46],1.8 µM
same,TGI,[46],> 100 µM
same,GI50,[47],0.407 µM
same,TGI,[47],> 100 µM
same,GI50,[48],0.394 µM
same,TGI,[48],> 100 µM
same,GI50,[49],1.8 µM
same,TGI,[49],> 100 µM
same,GI50,[50],1.37 µM
same,TGI,[50],> 65.1 µM
same,GI50,[51],0.0387 µM
same,TGI,[51],1.08 µM
same,GI50,[57],5.66 µM
same,TGI,[57],> 100 µM
same,GI50,[52],5.29 µM
same,TGI,[52],> 100 µM
same,GI50,[53],> 36.6 µM
same,TGI,[53],> 100 µM
same,GI50,[54],2.98 µM
same,TGI,[54],> 100 µM
same,GI50,[58],0.345 µM
same,TGI,[58],> 100 µM
